Results: patent US5594012A, “Amino acid derivatives and anti-active oxygen agents” (Ajinomoto Co., Inc., priority 1992, dated 1997)
Structures can show the parent of a compound that is named as a salt.

Tests used:
hydroxyl radical [1] = assay: Inhibitory effects on hydroxyl radical formation (2) (iron (II)/hydrogen peroxide, DMPO, ESR); assay type: biochemical; conditions: 306 μM test compound; 306 μM iron (II) sulphate; 75 mM DMPO; 306 μM hydrogen peroxide; ESR within 40 seconds
Description: Test for Inhibitory Effects on Hydroxyl Radical Formation (2)
To 75 μl of a solution of each of the test compounds shown in Table 9 below in 0.1M phosphate buffer (hereinafter referred to as "PBS-3") were successively added 75 μl of an aqueous solution of iron (II) sulphate, 20 μl of an aqueous solution of 5,5-dimethyl-1-pyrroline-N-oxide "DMPO" (manufactured by Dojin Chemical) and 75 μl of an aqueous solution of hydrogen peroxide. […] If test compounds were not soluble in PBS-3 alone, an aqueous sodium hydroxide solution or N,N-dimethyl formamide was added.
This solution was subjected to determination for the hydroxy radical immediately (within 40 seconds), using an electron spin resonance (ESR) meter "JES-FR80S" (manufactured by Nippon Denshi).
[formula] E1 : Signal magnitude when a test compound was added. E2 : Signal magnitude when a test compound was not added.

[2] = system: lipid peroxidation in murine brain homogenate; assay: Inhibitory effects on metal ion-induced lipid peroxidation (murine brain homogenate); assay type: biochemical, murine (C57 black mouse); conditions: 1 mM test compound; 100 μM ammonium iron (II) sulphate; 37° C., 30 minutes; pH 7.2 to 7.8
Description: Test for Inhibitory Effects on Metal Ion-induced Lipid Peroxidation
(§1) The test was carried out according to the method described in Method in Enzymol., Vol. 52, page 302, 1978. A C57 black mouse was killed by cervical dislocation, and the whole brain extracted from the dissected head was washed with 20 mM phosphate buffer (hereinafter referred to as "PBS-2"). Then, the brain was added with PBS-2 in an amount of 19 times its wet weight, and the mixture was disrupted and homogenized with a homogenizer "Polytron" (manufactured by Kinematica). The thus prepared 5% solution of the murine brain homogenate in PBS-2 was diluted 1:5 with fresh PBS-2. To 800 μl of the resulting 1% solution of the murine brain homogenate in PBS-2 (protein content: 0.8 to 1.0 mg/ml) were successively added 100 μl of a PBS-2 solution of each of the test compounds shown in Table 7 below and 100 μl of an aqueous solution of ammonium iron (II) sulphate. The final concentration of the test compounds and ammonium iron (II) sulphate were adjusted to be 1 mM and 100 μM, respectively. If test compounds were not soluble in PBS-2 alone, an aqueous sodium hydroxide solution or DMSO was added. The pH of the solution was adjusted to 7.2 to 7.8.
The solution after heated at 37° C. for 30 minutes was added with 2.0 ml of an aqueous solution of thiobarbituric acid/trichloroacetic acid/hydrochloric acid, and the mixture was heated in a boiling water bath for 15 minutes. After ice-cooling, the solution was extracted with 1.0 ml of 1-butanol to prepare a sample for determining the peroxide lipid in the same way as described in Test Example 1.
(§2) [formula] A1 : Absorbance when a test compound was added. A2 : Absorbance when a test compound was not added.
A3 : Absorbance when a test compound was not added and heating at 37° C. for 30 minutes was not carried out.

hydroxyl radical [3] = assay: Inhibitory effects on hydroxyl radical formation (1) (xanthine/xanthine oxidase, deoxyribose); assay type: biochemical; conditions: 360 μM test compound; 36 μM ammonium iron (III) sulphate; xanthine oxidase 0.7 unit/ml; 37° C., 15 minutes; pH 7.4 to 7.8
Description: Test for Inhibitory Effects on Hydroxyl Radical Formation (1)
The test was carried out in accordance with the method described in FEBS Letters, Vol. 128, page 347, 1981. Namely, to 1.1 ml of a solution of 54 mM sodium chloride in 9 mM phosphate buffer (hereinafter referred to as "PBS-I") were successively added 140 μl of a solution of each of the test compounds shown in Table 6 below in PBS-1, […] of a 1 mM solution of ammonium iron (III) sulphate in hydrochloric acid, 140 μl of a solution of xanthine (manufactured by Tokyo Kasei Co.) in PBS-1, 14 μl a solution of deoxyribose (Sigma) in PBS-1 and xanthine oxidase (Sigma). The final concentrations of the test compounds, ammonium iron (III) sulphate, xanthine, deoxyribose and xanthine oxidase were adjusted to be 360 μM, 36 μM, 70 μM, 700 μM and 0.7 unit/ml, respectively. If test compounds were not soluble in PBS-1 alone, aqueous sodium hydroxide solution or DMSO was added. The pH of the solution was adjusted to 7.4 to 7.8.
. The percent inhibition of the hydroxyl radical was calculated from the following equation (2) and the results are shown in Table 6. [formula] F1 : Intensity of fluorescence when a test compound was added. F2 : Intensity of fluorescence when a test compound was added but deoxyribose was not added.
F3 : Intensity of fluorescence when a test compound was not added.
F4 : Intensity of fluorescence when neither test compound nor deoxyribose was added.

[4] = system: lipid peroxidation in murine brain homogenate; assay: Inhibitory effects on lipid peroxidation (murine brain homogenate); assay type: biochemical, murine (C57 black mouse); conditions: 30 μM test compound; no added iron; 37° C., 60 minutes; pH 7.2 to 7.8
Description: as §1
Test for Inhibitory Effects on Lipid Peroxidation
To 900 μl of a 5% solution of the murine brain homogenate in PBS-2 prepared in the same way as described in Test Example 3 was added 100 μl of a PBS-2 solution of each of the test compounds shown in Table 8 below. The final concentration of the test compounds was adjusted to be 30 μM. If test compounds were not soluble in PBS-2 alone, an aqueous solution of sodium hydroxide or DMSO was added. The pH of the solution was adjusted to 7.2 to 7.8.
The solution after heated at 37° C. for 60 minutes was added with 1.0 ml of an aqeuous solution of thiobarbituric acid/trichloroacetic acid/hydrochloric acid, and the mixture was heated in a boiling water bath for 15 minutes. After ice-cooling, the solution was extracted with 2.0 ml of 1-butanol to prepare a sample for determining the lipid peroxide in the same way as described in Test Example 1. […] [formula] A4 : Absorbance when a test compound was added. A5 : Absorbance when a test compound was not added.
A6 : Abosrbance when a test compound was not added and heating at 37° C. for […] was not carried out.

UV absorptive activities = assay type: physicochemical; conditions: 100 μM in ethanol (water or DMSO added if not soluble); for Maximum molar extinction coefficient: UVA and UVB regions
Description: Test for UV Absorptive Activities
A solution of each of the test compounds shown in Table 10 below in ethanol was prepared for the final concentration to be 100 μM. If test compounds were not soluble in ethanol alone, water or DMSO was added.
The absorption spectrum of each sample was determined using a spectrophotometer "Model 320" (manufactured by Hitachi).

[5] = system: lipid peroxidation in homogenate of murine swiss 3T3 cells; assay: Inhibitory effects on UV-induced lipid peroxidation (homogenate of murine swiss 3T3 cells); assay type: biochemical; conditions: 1 mM test compound; UVB 0.4 mW/cm^2, 90 min; pH 7.2 to 7.8; TBA, 535 nm
Description: Test for Inhibitory Effects on UV-induced Lipid Peroxidation
The test was carried out on the basis of the methods described in Biochim. Biophys. […] Namely, 12 μl of an aqueous sodium hydroxide solution of each of the test compounds shown in Table 5 below was added to 1.2 ml of a homogenate of murine swiss 3T3 cells (i.e. a kind of murine skin cells) prepared by a conventional method in 20 mM phosphate buffer (protein content: 1.5 to 1.8 mg/ml). The final concentration of the test compounds was adjusted to be 1 mM and the pH of the solution was adjusted to 7.2 to 7.8. If test compounds were not soluble in an aqueous sodium hydroxide solution, they were dissolved in N,N-dimethyl sulfoxide (DMSO).
This solution (1.1 ml) was irradiated with UV rays (0.4 mW/cm^2, 90 min.) using a UVB lamp "EB-280C/J" (manufactured by Spectronics). To an aliquot (1.0 ml) of this solution were successively added 0.2 ml of an aqueous solution of sodium dodecyl sulfate and 1.0 ml of an aqueous solution of thiobarbituric acid/trichloroacetic acid/hydrochloric acid, and the mixed solution was heated in a boiling water bath for 15 minutes. After ice-cooling, the solution was extracted with 1.0 ml of 1-butanol to prepare a sample for determining peroxide lipid as absorbance at a wavelength of 535 nm using a spectrophotometer "Model 320" (manufactured by Hitachi).
as §2
A3 : Absorbance when a test compound was not added and UV rays were not irradiated.

Structure (SMILES) | % Inhibition of hydroxyl radical (hydroxyl radical [3]) [%] | Wavelength (nm) of maximum absorption (UV absorptive activities) [nm] | Maximum molar extinction coefficient (UV absorptive activities) | % Inhibition of hydroxy radicals (hydroxyl radical [1]) [%] | % Inhibition of metal ion-induced lipid peroxidation [2] [%] | % Inhibition of lipid peroxidation [4] [%] | % Inhibition of UV-induced lipid peroxidation [5] [%]
O=C(O)C(CCO)N=Cc1c(O)ccc2ccccc12 (stereo not drawn) [Synthesis Example 29] |  |  |  | 60 | 78 |  | 
Cc1ncc(CO)c(CNCC(=O)O)c1O [Synthesis Example 16] |  |  |  | 56 |  | 89 | 
N=C(N)NCCCC(N=Cc1c(O)ccc2ccccc12)C(=O)O (stereo not drawn) [Synthesis Example 53] |  |  |  | 68 | 96 |  | 
O=C(O)[C@H](Cc1c[nH]cn1)NCc1ccccc1O [Synthesis Example 1, N-(2-hydroxybenzyl)-L-histidine] | 29 |  |  | 27 | 26 | 53 | 40
O=C(O)C(Cc1ccc(O)cc1)NCc1ccccc1O (stereo not drawn) [Synthesis Example 4] | 33 |  |  | 27 | 26 |  | 60
O=C(O)C(CO)NCc1ccccc1O (stereo not drawn) [Synthesis Example 2] | 29 |  |  | 44 | 41 | 26 | 59
O=C(O)C(CCO)NCc1ccccc1O (stereo not drawn) [Synthesis Example 3] | 15 |  |  | 45 | 21 |  | 65
O=C(O)C(Cc1c[nH]cn1)N=Cc1ccccc1O (stereo not drawn) [Synthesis Example 60] |  |  |  | 33 | 34 |  | 
CC(C)C(N=Cc1c(O)ccc2ccccc12)C(=O)O (stereo not drawn) [Synthesis Example 30] |  |  |  | 25 | 43 |  | 
O=C(O)CCC(N=Cc1c(O)ccc2ccccc12)C(=O)O (stereo not drawn) [Synthesis Example 47] |  |  |  | 32 | 90 |  | 
COC(=O)CCC(N=Cc1c(O)ccc2ccccc12)C(=O)O (stereo not drawn) [Synthesis Example 48] |  |  |  | 54 | 85 |  | 
O=C(O)CC(O)(CC(=O)O)C(=O)O [Citric acid, reference compound] | -33 |  |  |  | -15 | -13 | 19

Further lines, with some results ahead:

% Inhibition of hydroxyl radical (hydroxyl radical [3]) [%] | Wavelength (nm) of maximum absorption (UV absorptive activities) [nm] | Maximum molar extinction coefficient (UV absorptive activities) | Structure (SMILES) | % Inhibition of hydroxy radicals (hydroxyl radical [1]) [%] | % Inhibition of metal ion-induced lipid peroxidation [2] [%] | % Inhibition of lipid peroxidation [4] [%] | % Inhibition of UV-induced lipid peroxidation [5] [%]
16 |  |  | O=C(O)C(Cc1ccc(O)cc1)N=Cc1c(O)ccc2ccccc12 (stereo not drawn) [Synthesis Example 31] |  | 90 |  | 
 | 290 | 5,300 | Cc1ncc(CO)c(CNC(Cc2c[nH]cn2)C(=O)O)c1O (stereo not drawn) [Synthesis Example 22] | 51 |  | 91 | 
 | 309 | 7,000 | O=C(O)[C@H](Cc1c[nH]cn1)N=Cc1c(O)ccc2ccccc12 [Synthesis Example 27, N-(2-hydroxy-1-naphthal)-L-histidine] | 71 | 87 | 98 | 
60 |  |  | Cc1ncc(CO)c(C=NC(Cc2ccc(O)cc2)C(=O)O)c1O (stereo not drawn) [Synthesis Example 70] | 28 | 27 |  | 
 | 336 | 3,000 | Cc1ncc(CO)c(C=NC(CO)C(=O)O)c1O (stereo not drawn) [Synthesis Example 69] | 19 | 23 | 15 | 
42 | 290 | 3,500 | Cc1ncc(CO)c(CNC(CO)C(=O)O)c1O (stereo not drawn) [Synthesis Example 18] | 43 | 26 | 44 | 
15 | 291 | 4,300 | Cc1ncc(CO)c(C=N[C@@H](Cc2c[nH]cn2)C(=O)O)c1O [Synthesis Example 68, N-pyridoxilidene-L-histidine-sodium salt] | 10 | 15 |  | 
